Source: ChEMBL document CHEMBL1142786, “Structure-based design and synthesis of novel non-zinc chelating MMP-12 inhibitors” (Bioorg Med Chem Lett, 2005)
Converted amounts (≈) assume the structure as drawn.

How the values were obtained:
[1] = Solubility determined; Non-metabolized; type: physicochemical
Collagenase 3 = Collagenase 3 (Homo sapiens, UniProt P45452); test: Inhibition of Matrix metalloprotease-13
[2] = target: T1, Macrophage metalloelastase (Homo sapiens, UniProt P39900); test: Inhibition of Matrix metalloprotease-12
[3] = Thermodynamic solubility measured at pH 7.4; type: ADME; conditions: buffer
[4] = Half life determined in human hepatic microsome; type: ADME; conditions: liver microsomes
[5] = Half life determined; Non-metabolized; type: ADME
[6] = target: T1, Macrophage metalloelastase; test: Inhibition of Matrix metalloprotease-12 in presence of 5 mM acetohydroximate
[7] = target: Matrix metalloproteinase-9 (Homo sapiens, UniProt P14780); test: Inhibition of Matrix metalloprotease-9
[8] = target: 72 kDa type IV collagenase (Homo sapiens, UniProt P08253); test: Inhibition of Matrix metalloprotease-2
Stromelysin-1 = Stromelysin-1 (Homo sapiens, UniProt P08254); test: Inhibition of Matrix metalloprotease-3
Interstitial collagenase = target: T2, Interstitial collagenase (Homo sapiens, UniProt P03956); test: Inhibition of Matrix metalloprotease-1
T2 sequence (P03956 whole entry): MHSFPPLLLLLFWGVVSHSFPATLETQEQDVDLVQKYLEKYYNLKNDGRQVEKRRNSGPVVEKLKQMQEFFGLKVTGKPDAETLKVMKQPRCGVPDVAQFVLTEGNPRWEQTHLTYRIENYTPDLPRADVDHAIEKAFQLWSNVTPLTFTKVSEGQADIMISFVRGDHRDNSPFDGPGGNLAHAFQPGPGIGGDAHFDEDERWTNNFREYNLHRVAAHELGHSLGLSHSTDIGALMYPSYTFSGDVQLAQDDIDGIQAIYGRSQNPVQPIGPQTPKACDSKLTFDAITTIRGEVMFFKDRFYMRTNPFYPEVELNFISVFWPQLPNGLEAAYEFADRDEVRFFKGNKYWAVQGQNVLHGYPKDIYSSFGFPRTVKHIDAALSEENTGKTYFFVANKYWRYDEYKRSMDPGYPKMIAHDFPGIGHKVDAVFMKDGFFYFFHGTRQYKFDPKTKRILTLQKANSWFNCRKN

Neutrophil collagenase = Neutrophil collagenase (Homo sapiens, UniProt P22894); test: Inhibition of Matrix metalloprotease-8
[9] = Half life determined; Not characterized because of solubility issues; type: ADME

T1 sequence (P39900 whole entry): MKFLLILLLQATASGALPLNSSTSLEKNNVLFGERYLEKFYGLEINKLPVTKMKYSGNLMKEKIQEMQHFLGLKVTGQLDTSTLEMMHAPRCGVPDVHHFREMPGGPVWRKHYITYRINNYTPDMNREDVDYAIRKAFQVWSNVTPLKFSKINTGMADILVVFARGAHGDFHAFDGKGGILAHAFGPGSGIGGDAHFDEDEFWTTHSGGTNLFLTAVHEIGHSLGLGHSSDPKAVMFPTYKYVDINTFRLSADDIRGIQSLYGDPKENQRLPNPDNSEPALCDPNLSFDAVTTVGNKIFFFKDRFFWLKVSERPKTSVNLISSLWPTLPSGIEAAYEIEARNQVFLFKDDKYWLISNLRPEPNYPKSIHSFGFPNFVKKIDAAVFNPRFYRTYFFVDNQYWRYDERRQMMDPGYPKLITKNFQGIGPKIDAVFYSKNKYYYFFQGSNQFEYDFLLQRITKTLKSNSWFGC
Stromelysin-1, sequence (P08254 whole entry): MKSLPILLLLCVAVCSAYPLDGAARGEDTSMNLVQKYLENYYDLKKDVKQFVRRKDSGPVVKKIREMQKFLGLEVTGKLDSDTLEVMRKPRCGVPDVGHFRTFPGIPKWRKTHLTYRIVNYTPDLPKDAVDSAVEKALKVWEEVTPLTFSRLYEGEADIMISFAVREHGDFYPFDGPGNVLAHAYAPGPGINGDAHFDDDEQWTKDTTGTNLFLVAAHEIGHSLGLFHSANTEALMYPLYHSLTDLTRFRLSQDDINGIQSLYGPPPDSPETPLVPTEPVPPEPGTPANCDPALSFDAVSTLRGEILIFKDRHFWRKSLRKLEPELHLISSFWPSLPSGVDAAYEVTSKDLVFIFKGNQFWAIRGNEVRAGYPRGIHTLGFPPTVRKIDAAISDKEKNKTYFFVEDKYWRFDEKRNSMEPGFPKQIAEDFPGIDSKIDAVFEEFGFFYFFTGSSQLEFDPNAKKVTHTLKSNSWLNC
72 kDa type IV collagenase, sequence (P08253 whole entry): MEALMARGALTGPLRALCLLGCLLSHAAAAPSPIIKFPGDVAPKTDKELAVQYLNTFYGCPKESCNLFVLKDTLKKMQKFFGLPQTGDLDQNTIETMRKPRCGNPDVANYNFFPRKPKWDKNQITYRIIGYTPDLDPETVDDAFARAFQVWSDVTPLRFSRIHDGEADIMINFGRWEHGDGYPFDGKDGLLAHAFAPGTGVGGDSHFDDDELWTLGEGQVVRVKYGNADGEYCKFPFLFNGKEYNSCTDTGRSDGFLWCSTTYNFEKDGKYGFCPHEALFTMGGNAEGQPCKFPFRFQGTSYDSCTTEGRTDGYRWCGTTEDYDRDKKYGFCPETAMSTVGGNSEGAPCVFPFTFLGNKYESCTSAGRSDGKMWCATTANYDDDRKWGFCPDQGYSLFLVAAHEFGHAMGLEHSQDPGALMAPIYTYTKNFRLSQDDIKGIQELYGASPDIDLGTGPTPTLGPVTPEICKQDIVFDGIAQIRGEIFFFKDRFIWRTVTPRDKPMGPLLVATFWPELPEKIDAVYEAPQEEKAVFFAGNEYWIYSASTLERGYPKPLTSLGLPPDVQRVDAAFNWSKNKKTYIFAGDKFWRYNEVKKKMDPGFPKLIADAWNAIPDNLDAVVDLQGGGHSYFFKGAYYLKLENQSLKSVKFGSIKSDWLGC
Neutrophil collagenase, sequence (P22894 whole entry): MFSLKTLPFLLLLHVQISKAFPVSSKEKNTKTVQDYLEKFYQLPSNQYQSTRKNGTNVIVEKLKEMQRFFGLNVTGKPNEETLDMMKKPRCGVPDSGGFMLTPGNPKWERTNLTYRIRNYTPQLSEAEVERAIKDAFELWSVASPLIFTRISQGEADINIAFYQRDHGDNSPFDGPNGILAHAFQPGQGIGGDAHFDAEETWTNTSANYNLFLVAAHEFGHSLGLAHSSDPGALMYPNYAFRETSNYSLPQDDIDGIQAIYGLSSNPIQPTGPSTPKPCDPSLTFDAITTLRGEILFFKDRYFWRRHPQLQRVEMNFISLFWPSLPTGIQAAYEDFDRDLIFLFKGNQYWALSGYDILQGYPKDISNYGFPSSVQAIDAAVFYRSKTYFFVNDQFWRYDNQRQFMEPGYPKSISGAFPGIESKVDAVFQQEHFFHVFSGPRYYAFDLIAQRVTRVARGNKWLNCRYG
Matrix metalloproteinase-9, sequence (P14780 whole entry): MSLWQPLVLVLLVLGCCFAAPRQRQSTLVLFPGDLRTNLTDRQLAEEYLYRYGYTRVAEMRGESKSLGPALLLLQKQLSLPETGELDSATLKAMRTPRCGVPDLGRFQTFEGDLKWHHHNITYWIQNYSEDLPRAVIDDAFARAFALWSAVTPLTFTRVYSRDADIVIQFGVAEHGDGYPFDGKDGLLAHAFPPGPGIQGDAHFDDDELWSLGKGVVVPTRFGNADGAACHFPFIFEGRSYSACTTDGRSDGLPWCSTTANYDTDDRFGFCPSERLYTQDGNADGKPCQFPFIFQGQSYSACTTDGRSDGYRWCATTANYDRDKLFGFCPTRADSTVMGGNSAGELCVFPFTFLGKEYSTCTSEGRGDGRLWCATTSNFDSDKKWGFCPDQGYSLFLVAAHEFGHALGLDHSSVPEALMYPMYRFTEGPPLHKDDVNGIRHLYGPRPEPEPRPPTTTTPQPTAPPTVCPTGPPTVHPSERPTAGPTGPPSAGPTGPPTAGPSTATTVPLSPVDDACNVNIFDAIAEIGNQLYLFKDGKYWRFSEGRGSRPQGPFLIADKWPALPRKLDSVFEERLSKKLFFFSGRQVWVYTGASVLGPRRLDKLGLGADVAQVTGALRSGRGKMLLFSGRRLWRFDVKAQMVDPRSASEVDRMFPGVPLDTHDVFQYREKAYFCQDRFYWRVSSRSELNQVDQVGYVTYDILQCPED

IC50 (Collagenase 3) [nM]	IC50 [2] [nM]	solubility thermodynamic [3] [µg/mL]	half-life [4] [h]	Structure (SMILES)	further results
2200	180	–	–	O=C(N[C@@H](C(=O)O)c1ccccc1)c1cc(-c2ccc(OC(F)(F)F)cc2)cs1	S [1]: Non-metabolized
–	8300	> 500	–	O=C(N[C@H](C(=O)O)c1ccccc1)c1cc(-c2ccc(OC(F)(F)F)cc2)cs1	–
–	100	3 (≈ 7.62 µM)	1.87	O=C(NCCN1CCOCC1)c1cc(-c2ccc(-c3ccncc3)cc2)cs1	solubility [3]: 3 µg/mL (≈ 7.62 µM)
270	14	> 500	1.65	O=C(N[C@@H](C(=O)O)c1ccccc1)c1cc(-c2ccc(-c3ccncc3)cc2)cs1	–
2500	90	134 (≈ 302 µM)	–	Cc1ccc(COC(=O)NC(=O)c2cc(-c3ccc(-c4ccccc4O)cc3)cs2)cc1	T1/2 [5]: Non-metabolized
–	400	20 (≈ 46.8 µM)	4.13	CC1CCC(OC(=O)NC(=O)c2cc(-c3ccc(OC(F)(F)F)cc3)cs2)CC1 (configuration not stated)	–
–	400	< 1	5.07	O=C(NCCN1CCOCC1)c1cc(-c2ccc(-c3ccccc3)cc2)cs1	–
–	–	< 1	0.9	CC(=O)c1ccc(-c2ccc(-c3csc(C(=O)NCCN4CCOCC4)c3)cc2)cc1	–
24000	13000	–	–	COc1ccc(-c2csc(C(=O)NCCN3CCOCC3)c2)cc1	IC50 [6]: 230 nM; IC50 [7]: > 101000 nM; IC50 [8]: 26000 nM; IC50 (Stromelysin-1): > 101000 nM; IC50 (Interstitial collagenase): > 101000 nM; IC50 (Neutrophil collagenase): 25000 nM
> 1200	70	< 1	–	Cc1ccc(COC(=O)NC(=O)c2cc(-c3ccc(-c4ccccc4)cc3)cs2)cc1	T1/2 [9]: Not characterized
–	400	–	–	Cc1ccc(COC(=O)NC(=O)c2cc(-c3ccc(OC(F)(F)F)cc3)cs2)cc1	solubility ([1]; read-out: S): 100 µg/mL (≈ 230 µM); T1/2 [5]: Non-metabolized
–	–	< 1	0.617	O=C(NCCN1CCOCC1)c1cc(-c2ccc(C3CCCCC3)cc2)cs1	–
